How the values were obtained:
[1] = target: Human immunodeficiency virus type 1 reverse transcriptase (Human immunodeficiency virus 1, UniProt Q72547); assay: Inhibition of recombinant HIV-1 reverse transcriptase RNA-dependent DNA polymerase activity using poly(rA)/oligo(dT)16 as template/primer preincubated for 5 to 10 mins followed by template/primer addition and measured after 16 hrs by colorimetric assay
[2] = Cytotoxicity against human CEM-GFP cells after 48 hrs by MTT assay; type: cell-based
[3] = test system: Human immunodeficiency virus 1; assay: Antiviral activity against Human immunodeficiency virus 1 NL4-3 infected in human CEM-GFP cells after 7 days by p24 ELISA; type: functional, organism-based; settings: Human immunodeficiency virus 1, NL4-3, CEM-GFP, 168 h
[4] = Therapeutic index, ratio of CC50 for human CEM-GFP cells to IC50 for HIV-1 NL4-3 infected in human CEM-GFP cells; type: toxicity, cell-based; settings: read-out: Ratio CC50/IC50
[5] = target: Human immunodeficiency virus type 1 reverse transcriptase (Human immunodeficiency virus 1) (UniProt Q72547); assay: Potency index, ratio of inophyllym B EC50 to compound EC50 for inhibition of recombinant HIV-1 reverse transcriptase RNA-dependent DNA polymerase activity
[6] = target: Human immunodeficiency virus type 1 reverse transcriptase (Human immunodeficiency virus 1) (UniProt Q72547); assay: Potency index, ratio of efavirenz EC50 to compound EC50 for inhibition of recombinant HIV-1 reverse transcriptase RNA-dependent DNA polymerase activity

`COc1ccc2c3c(ccc2c1)OCN(c1nc(-c2ccc(F)cc2)cs1)C3` showed an EC50 [1] of 192 nM, a CC50 at 48 h [2] of 24300 nM and an IC50 [3] of 253 nM. It also gave a selectivity ratio [4] of 96.2.

Work on `FC(F)(F)c1ccc(-c2csc(N3COc4ccc5ccccc5c4C3)n2)cc1` yielded an EC50 [1] of 79 nM, a Ratio EC50 [5] of 3 and a CC50 at 48 h [2] of 24700 nM. The IC50 [3] was 95.5 nM and the selectivity ratio [4] was 258.

For `Fc1ccc(-c2csc(N3COc4ccc5ccccc5c4C3)n2)cc1`, the EC50 [1] was 210 nM, the CC50 at 48 h [2] was 25300 nM and the IC50 [3] was 239 nM. The selectivity ratio [4] was 106.

In the case of `COc1ccc2c3c(ccc2c1)OCN(c1nc(-c2ccc(C(F)(F)F)cc2)cs1)C3`, the EC50 [1] is reported as 66 nM, the Ratio EC50 [6] is reported as 2.5 and the CC50 at 48 h [2] is reported as 26300 nM. For the same molecule, the IC50 [3] was 82.7 nM and the selectivity ratio [4] was 318.

Molecule `Cc1cn([C@H]2C[C@H](N=[N+]=[N-])[C@@H](CO)O2)c(=O)[nH]c1=O` [ZIDOVUDINE] has a CC50 at 48 h [2] of 13100 nM, an IC50 [3] of 55.7 nM and a selectivity ratio [4] of 236.

With `O=C1Nc2ccc(Cl)cc2[C@@](C#CC2CC2)(C(F)(F)F)O1` [EFAVIRENZ] the CC50 at 48 h [2] was 40500 nM and the IC50 [3] was 163 nM.

Molecule `C[C@H]1[C@H](O)c2c(c3c(c4c(-c5ccccc5)cc(=O)oc24)OC(C)(C)C=C3)O[C@@H]1C` has an EC50 [1] of 225 nM.

Reference: ChEMBL document CHEMBL4270602, “Design, synthesis, docking studies and biological screening of 2-thiazolyl substituted -2,3-dihydro-1H-naphtho[1,2-e][1,3]oxazines as potent HIV-1 reverse transcriptase inhibitors” (Eur J Med Chem, 2018)
